# Measured values: the supplement of paper PMC8837787
# Tested on: Saccharomyces cerevisiae ABC16-Green Monster
# Assay: growth inhibition at single dose (up to 150 µM), below the 70% cut-off for dose-response; higher = more potent
# Conditions: 18 h; 30 °C; YPD
# Outline: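 Percent growth inhibition is the reported value. Drug-sensitive S. cerevisiae ABC16-Green Monster cultures in log phase (OD600 0.1–0.2), 200 µl per well in 96-well plates, received each library compound once at 150 µM in biological duplicates, with untreated cultures run alongside. Growth was followed by OD600 at 0 h and after 18 h at 30 °C. Dose-response was not done for compounds below 70% in both replicates.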
row,Compound,growth inhibition at single dose [%]
1,COc1ccc2c(c1)CCCC21NC(=O)N(Cc2cc(=O)n3cc(C)ccc3n2)C1=O (configuration not stated),< 70
2,c1cncc(NCc2ccc(-c3cc4ccncc4cc3OC3CCNCC3)s2)c1,< 70
3,OC1=C2C(=Nc3ccccc3SC2c2ccc(Br)cc2)c2ccccc21 (configuration not stated),< 70
4,Cc1cc(C2=NOC(c3cc(Cl)c(F)c(Cl)c3)(C(F)(F)F)C2)ccc1C(=O)NCc1ccc2c(c1)C(C)(C)OB2O (configuration not stated),< 70
5,COc1cc(NC(=O)COc2ccc3[nH]c4ccccc4c(=O)c3c2)c(OC)cc1Cl,< 70
6,CC(C)Cn1c2c(c(O)c(C(=O)Nc3ncccc3O)c1=O)CCCC2,< 70
7,COc1ccc(C(=O)C2CC2c2ccc(Cl)cc2)cc1 (configuration not stated),< 70
8,Cc1cc(NC(=O)C2c3ccccc3C(=O)N(CC(C)C)C2c2cccs2)no1 (configuration not stated),< 70
9,Cc1cnc(NC(=O)c2ccc(N(C)C3CCCCC3)cc2)s1,< 70
10,COc1ccc(CCNc2ncnc3sc(C)cc23)cc1OC,< 70
11,C[C@]1(O)C[C@@H](c2nc(-c3ccc4ccc(-c5ccccc5)nc4c3)c3c(N)nccn32)C1,< 70
12,Cc1nnc(NC(=O)c2cn(-c3ccccc3)nc2-c2ccccc2C)o1,< 70
13,Cc1ccc(Oc2c(C)[nH]c(-c3ccccc3)nc2=O)cc1,< 70
14,C=C(C)COc1ccc(-c2onc(C)c2-c2ccc(OC)c(OC)c2)c(O)c1,< 70
15,Cc1cc(C(=O)NCC#Cc2cccc(C(F)(F)F)c2)on1,< 70
16,Cc1nccnc1-c1ccnn1C(=O)Nc1cc(Cl)cc(Cl)c1,< 70
17,O=C(NC1CCN(Cc2ccccc2)CC1)c1cc(-c2ccncc2)nc2ccc(Cl)cc12,< 70
18,Cc1cc(C(=O)CSc2nc3ccccc3[nH]2)c(C)n1CC1CCCO1 (configuration not stated),< 70
19,O=C(Nc1ccc(F)c(-c2nc3cc(-c4ccccc4)cnc3[nH]2)c1)N1CCCC1,< 70
20,CCN(CC)S(=O)(=O)N1CCN(C(=O)c2[nH]nc3ccccc23)CC1,< 70
21,CC[n+]1ccccc1/C=C/c1ccc(N(C)C)cc1,< 70
22,CCCn1c(=O)n(CC(=O)Nc2ccc(C)c(C)c2)c(=O)c2c1nc(C(F)(F)F)n2CCOC,< 70
23,Cc1noc(C)c1C(=O)OCC(=O)c1cc(C)n(-c2ccccc2F)c1C,< 70

row,Compound,growth inhibition at single dose [%]
1,Nc1c2c(nc3sc4c(c13)CCCC4)CCCC2,< 70
2,Cc1cc(Cl)c(S(=O)(=O)N2CCCC2)cc1OCC(=O)NC1CCCCC1,< 70
3,Cc1ncc(-c2ccnc(Nc3ccc(S(C)(=O)=O)cc3)n2)n1C(C)C,< 70
4,CC(C(=O)Nc1ccc2oc(-c3ccncc3)nc2c1)c1ccccc1 (configuration not stated),< 70
5,CCN(CC)CCn1c(=N)n(CC(O)c2ccc(Cl)c(Cl)c2)c2ccccc21 (configuration not stated),< 70
6,O=C(O)C1Cc2c([nH]c3ccccc23)C(c2ccc(Cl)cc2Cl)N1 (configuration not stated),< 70
7,CNc1snc(C)c1C(=O)NC(C)c1ccc(C(C)C)cc1 (configuration not stated),< 70
8,Cc1nn(-c2ccccc2)c(C)c1-c1nc(-c2ccccc2)no1,< 70
9,FC(F)(F)c1cccc(Nc2nc(-c3ccccc3)nc3ncccc23)c1,< 70
10,CC(=O)c1cc2c(N)c(-c3nc(C(C)(C)C)no3)sc2nc1C,< 70
11,CN(C)c1nc(N)nc(CN(Cc2nc(N)nc(N(C)C)n2)C23CC4CC(CC(C4)C2)C3)n1,< 70
12,Cc1c(-c2ccccc2)sc2[nH]c(CC(N)=O)nc(=O)c12,< 70
13,CC(C)c1cc(C(=O)Nc2nnc3ccccn23)c2cnn(C(C)C)c2n1,< 70
14,O=C(Nc1ncccc1O)c1ccc(-n2ccnc2)cc1,< 70
15,c1ccc2cc(OCCNc3ncnc4sccc34)ccc2c1,< 70
16,Cc1ccc2[nH]c(C3CCCNC3)c(-c3ccncc3)c2c1 (configuration not stated),< 70
17,CC(Oc1cccc(Cl)c1)C(=O)Nc1ccc2oc(-c3ccncc3)nc2c1 (configuration not stated),< 70
18,O=C1C=C/C(=N\Nc2ccc3ccccc3c2)c2cccnc21,< 70
19,CCOc1ccc2nc(C)cc(Nc3ccc(N(C)C)cc3)c2c1,< 70
20,Cc1cc(C)n(-c2ccc(NC(=O)C3CCN(Cc4cnc(C)s4)CC3)cc2)n1,< 70
21,Cc1cc(=O)oc2c1ccc1oc(C(=O)c3ccccc3)c(C)c12,< 70
22,CCCCCCn1c(=N)n(CC(O)COc2cccc(C)c2)c2ccccc21 (configuration not stated),< 70
23,COc1ccccc1CNC(=O)c1cc(C2CC2)nc2c1cnn2C(C)C,< 70

row,Compound,growth inhibition at single dose [%]
1,Cc1ccc(Nc2nccc(C(F)(F)F)n2)cc1S(=O)(=O)N(C)C,< 70
2,CC1(C)Cc2c(c(N3CCOCC3)nc3snc(Br)c23)CO1,< 70
3,CNc1snc(C)c1C(=O)OCc1csc(-c2ccccc2)n1,< 70
4,O=C(C1CCN(c2cc(-n3cccc3)ncn2)CC1)N1CCc2ccccc2C1,< 70
5,Nc1nccnc1C(=O)Nc1nc2cc3c(cc2s1)OCCO3,< 70
6,CC(C)c1nc(N2CCN(CC(=O)N3CCCC3)CC2)c(C#N)c2c1CCC2,< 70
7,O=C(Nc1ccc2c(c1)OC1(CCCCC1)O2)c1ccc[nH]c1=O,< 70
8,CC(C)C(C(=O)Nc1ccc(S(=O)(=O)N(C)C)cc1)c1ccc(Cl)cc1 (configuration not stated),< 70
9,CN(c1ccccc1)S(=O)(=O)c1ccc(NC(=O)c2cccs2)cc1,< 70
10,CC(C)c1ccc2c(c1)/C(=N/NC(=O)c1ccccc1F)C(=O)N2,< 70
11,COc1ccc(NC(=O)C2c3ccccc3C(=O)N(CC(C)C)C2c2cccs2)cc1Cl (configuration not stated),< 70
12,N=C(N)Nc1ccc(-c2ccc(-c3ccc(N=C(N)N)c(Cl)c3)o2)cc1Cl,< 70
13,N#Cc1ccc(-c2ccc(OCC(N)=O)cc2)cc1,< 70
14,COc1ccc(-c2nc(NC(=O)CS(=O)(=O)c3ccc(F)cc3)sc2C)cc1,< 70
15,CC(C)C(Oc1cccc2ccccc12)C(=O)O (configuration not stated),< 70
16,Cc1ccc(C2CC(C(F)(F)F)n3nc(C(=O)N4CCN(C(c5ccccc5)c5ccccc5)CC4)cc3N2)cc1 (configuration not stated),< 70
17,Cn1c(=O)c2cc(C(=O)NCCCN3CCCCCC3)sc2c2ccccc21,< 70
18,Cc1ccc(NC(=O)c2[nH]nc3c2CCCC3)cc1Cl,< 70
19,CCCCc1ccc(NS(=O)(=O)c2cc3c4c(c2)CCN4C(=O)CC3)cc1,< 70
20,COc1ccc(CCn2c(=N)c(C(=O)NCc3cccnc3)cc3c(=O)n4cccc(C)c4nc32)cc1,< 70
21,O=C(Nc1ccc(Cl)cc1)Nc1nnc(CSCc2ccc(Cl)cc2)s1,< 70
22,O=C(Nc1nc2c(s1)CCCC2)c1cc(F)c(F)c(F)c1F,< 70
23,CNC(=O)c1ccc2n1CCN(C(=O)OCc1ccccc1)C2C (configuration not stated),< 70

row,Compound,growth inhibition at single dose [%]
1,CC1(c2ccccc2)Nc2ccccc2-c2nc3ccccc3n21 (configuration not stated),< 70
2,Cc1ccc(OCCNC(=O)c2[nH]c3c(c2C)C(=O)CCC3)c(C)c1,< 70
3,O=C(Nc1cccc2ccccc12)N1CCN(c2ncccc2C(F)(F)F)CC1,< 70
4,COc1ccc2c(=O)cc(C(Cl)(Cl)Cl)oc2c1,< 70
5,O=C(Nc1ccc(C23CC4CC(CC(c5ccccc5)(C4)C2)C3)cc1)c1cccs1,< 70
6,CC(C)CNC(=O)c1c(N)n(CCc2ccccc2F)c2nc3ccccc3nc12,< 70
7,Cc1ccc(CN2CCC(C(=O)Nc3ccc(-c4cc5ccccc5[nH]4)cc3)CC2)o1,< 70
8,Cc1nc(NCc2ccco2)c2c(C)c(C)sc2n1,< 70
9,Brc1cnc2nc(-c3ccccc3)[nH]c2c1,< 70
10,CNc1snc(C)c1C(=O)N(C)Cc1ccccc1OC(F)(F)F,< 70
11,CCn1c(SCC(=O)Nc2cc(C(F)(F)F)ccc2Cl)nc2ccccc2c1=O,< 70
12,COc1ccc2nccc(NC(=O)C3CCN(CCc4ccc(Cl)cc4)CC3)c2n1,< 70
13,FC(F)(F)c1nc(NCCNc2ccccn2)c2ccccc2n1,< 70
14,O=c1c2ccccc2[nH]c2ccc(Oc3ncnc4ccsc34)cc12,< 70
15,COc1ccc(Nc2nc(NN=Cc3ccc(O)cc3)nc(Nc3ccc([N+](=O)[O-])cc3)n2)cc1,< 70
16,COCc1[nH]n2c3cccc(=O)c-3nnc2c1-c1ccccc1,< 70
17,COc1ccc(CN=C2NN=C(c3cc4ccccc4o3)CS2)cc1,< 70
18,Cc1cc(C)c2cc(C(=O)Nc3ccc(N4CCN(C)CC4)nc3)[nH]c2c1,< 70
19,O=C(Nc1cnc2ccccc2c1)c1cccc(-n2cnnn2)c1,< 70
20,O=C(Nc1cc(S(=O)(=O)N2CCCC2)ccc1O)c1sccc1-n1cccc1,< 70
21,COc1cccc(OC)c1C(=O)Nc1ccc(Cl)c(-c2nc3ccccc3s2)c1,< 70
22,CC(=O)N1CCc2cc(NC(=O)c3cc(C)n(C4CCCCC4)c3C)ccc21,< 70
23,COc1ccc(C)c2sc(N(Cc3cccnc3)C(=O)c3ccc(C#N)cc3)nc12,< 70
